Here are results for 20 molecules from paper PMC3606667 (Journal of natural products, 2013).

Read-outs that look alike come from different tables or passages of the source. A value given as a limit tells only on which side of the number the result lay.

Series [1] relates to CCD-112CoN normal colon cell line. Put plainly: Cytotoxicity against CCD-112CoN normal colon cell line. It counts as cell-based. Particulars: read-out: CCD112CoNl ED50.
Series [2] addresses NF-κB (p65) (Homo sapiens, UniProt Q04206). Description: Enzyme-based ELISA NF-κB. Particulars: for NF-κB (p65) inhibitory activity (in words): ELISA assay; for times more potent than the control compound rocaglamide in NF-κB (p65) assay: relative to rocaglamide. It counts as biochemical. In general terms: ELISA stands for enzyme-linked immunosorbent assay.
In series [3] the test system is human monocytic leukemia cell line MONO-MAC-1. The following applies: cited from earlier work.
Series [4] has as its system human monocytic leukemia cell line MONO-MAC-6. Particulars: cited from earlier work.
For series [5], the system named is HT-29 human colon cancer cells. Put plainly: Cytotoxicity against HT-29 human colon cancer cells. It counts as cell-based. Particulars: relative to perviridisin B (2), ED50 0.46 µM.
In series [6] the test system is LNCaP human prostate cancer cells. Particulars: cited from earlier work.
The mark [7] stands for this setting: NF-κB (p65) ED50, ELISA assay, ED50 > 20 µM inactive.

NF-κB (p65), sequence (Q04206 whole entry): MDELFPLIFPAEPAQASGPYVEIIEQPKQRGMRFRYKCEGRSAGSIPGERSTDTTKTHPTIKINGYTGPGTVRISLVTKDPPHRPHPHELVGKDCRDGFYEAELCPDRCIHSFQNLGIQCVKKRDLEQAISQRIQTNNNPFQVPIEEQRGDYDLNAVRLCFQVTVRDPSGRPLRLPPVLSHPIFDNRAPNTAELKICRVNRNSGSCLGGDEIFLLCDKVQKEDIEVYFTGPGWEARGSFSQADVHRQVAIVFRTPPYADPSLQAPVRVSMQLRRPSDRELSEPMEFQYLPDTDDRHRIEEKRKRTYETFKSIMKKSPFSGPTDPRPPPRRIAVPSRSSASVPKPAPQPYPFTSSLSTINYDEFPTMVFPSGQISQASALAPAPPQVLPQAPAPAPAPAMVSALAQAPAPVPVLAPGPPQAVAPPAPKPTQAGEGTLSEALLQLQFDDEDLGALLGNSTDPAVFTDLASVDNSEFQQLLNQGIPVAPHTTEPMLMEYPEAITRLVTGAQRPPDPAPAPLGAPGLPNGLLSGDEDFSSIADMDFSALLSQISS

Take `COC(=O)[C@H]1[C@@H](O)[C@@]2(OC)c3c(OC)cc(OC)cc3O[C@@]2(c2ccc(OC)cc2)[C@@H]1c1ccccc1` [Compound 16, methyl 8b-O-methylrocaglate]: in series [1], the CC50 is > 50 µM. Also, the IC50 in series [2] (setting [7]) is > 20 µM. In addition, the “cytotoxicity result in MONO-MAC-1” value in series [3] is “negative result”. For the same molecule, in series [4], the “cytotoxicity result in MONO-MAC-6” value is on record as “negative result”.
Regarding `COc1ccc([C@@]23Oc4cc(OC)cc(OC)c4[C@]2(OC)[C@H](O)C[C@H]3c2ccccc2)cc1` [8b-O-methylrocaglaol], the IC50 in series [2] (setting [7]) was > 20 µM. For the same molecule, in series [3], the “cytotoxicity result in MONO-MAC-1” value is listed as “negative result”. The “cytotoxicity result in MONO-MAC-6” value in series [4] was “negative result”.
`CC(C)=C[C@H](O)[C@@H](O)[C@@H](CO)[C@H]1CC[C@@]2(C)[C@@H]3CC[C@H]4C(C)(C)[C@@H](O)CC[C@@]45C[C@@]35CC[C@]12C` [argenteanol]: the IC50 in series [2] (setting [7]) was > 20 µM.
`COC(=O)[C@H]1[C@@H](O)[C@@]2(OC)c3c(OC)cc(OC)cc3O[C@@]2(c2ccc3c(c2)OCO3)[C@@H]1c1ccccc1` [Compound 4, methyl 8b-O-methyl-4′-demethoxy-3′,4′-methylenedioxyrocaglate]: in series [1], the CC50 was > 50 µM. In addition, the IC50 in series [2] (setting [7]) is > 20 µM.
Take `COC(=O)[C@H]1[C@@H](O)[C@@]2(O)c3c(OC)cc(OC)cc3O[C@@]2(c2ccc3c(c2)OCO3)[C@@H]1c1ccccc1` [Compound 12, methyl 4′-demethoxy-3′,4′-methylenedioxyrocaglate]: in series [1], the CC50 is > 50 µM. Moreover, in series [2], 3.54 µM corresponded to half-maximal inhibition (IC50) and the “NF-κB (p65) inhibitory activity (in words)” value is reported as “significant NF-κB (p65) inhibitory activity”.
Turning to `COc1cc(OC)c2c(c1)O[C@@]1(c3ccc4c(c3)OCO4)[C@H](c3ccccc3)C[C@@H](O)[C@@]21O` [Compound 11, 4′-demethoxy-3′,4′-methylenedioxyrocaglaol], the CC50 in series [1] was > 50 µM. In series [2], the IC50 amounted to 0.33 µM and the “NF-κB (p65) inhibitory activity (in words)” value is “significant NF-κB (p65) inhibitory activity”.
`COC(=O)[C@H]1[C@@H](O)[C@@]2(O)c3c(OC)cc(OC)cc3O[C@@]2(c2ccc(OC)cc2)[C@@H]1c1ccccc1` [Compound 10, methyl rocaglate]: the CC50 in series [1] was > 50 µM. Moreover, in series [2] (setting [7]), the IC50 was > 20 µM.
Turning to `CC1(C)[C@H](O)CC[C@]2(C)[C@H]3CC[C@@H]4[C@@H]([C@]5(C)CCC(=O)O5)CC[C@@]4(C)[C@]3(C)CC[C@@H]12` [cabraleahydroxylactone], the IC50 in series [2] (setting [7]) is > 20 µM.
Take `CC(C)[C@H]1CC[C@]2(C)C(=O)CCC(C=O)=C[C@H]12` [Compound 17, 2-oxaisodauc-5-en-12-al]: in series [2], the midpoint of inhibition, the IC50, lay at 0.005 µM; the “NF-κB (p65) inhibitory activity (in words)” value is recorded as “significant NF-κB (p65) inhibitory activity”; the “times more potent than the control compound rocaglamide in NF-κB (p65) assay” value is recorded as “more than 10 times”.
`COc1ccc([C@]23Oc4cc(OC)cc(OC)c4[C@](O)(C2O)[C@@H](c2ccccc2)[C@@H]3C(=O)NCCCCNC(=O)/C(C)=C/CO)cc1` (stereo partly shown) [Compound 1, perviridisin A]: the IC50 in series [2] (setting [7]) was > 20 µM. Besides, the “times less active than its C-10 epimer perviridisin B (2) against HT-29 cells” value in series [5] is given as “over 25 times”.
`COc1ccc([C@@]23Oc4cc(OC)cc(OC)c4[C@]2(O)[C@H](O)[C@H](C(=O)N(C)C)[C@H]3c2ccccc2)cc1` [rocaglamide, reference compound]: the CC50 in series [1] was > 50 µM.
Take `COc1cc(OC)c2c(c1)O[C@@]1(c3ccc4c(c3)OCO4)[C@H](c3ccccc3)C[C@@H](O)[C@@]21OC` [Compound 3, 8b-O-methyl-4′-demethoxy-3′,4′-methylenedioxyrocaglaol]: in series [1], the CC50 is > 50 µM. The IC50 in series [2] (setting [7]) is > 20 µM.
With `COC(=O)[C@H]1[C@@H](OC=O)[C@@]2(O)c3c(OC)cc(OC)cc3O[C@@]2(c2ccc(OC)cc2)[C@@H]1c1ccccc1` [Compound 15, methyl 1-formyloxyrocaglate], the CC50 in series [1] was > 50 µM. The IC50 in series [2] (setting [7]) is > 20 µM.
As for `COc1ccc([C@]23Oc4cc(OC)cc(OC)c4[C@](O)(C2O)[C@@H](c2ccccc2)[C@@H]3C(=O)NCCCCNC(=O)/C(C)=C/CO)cc1` (stereo partly shown) [Compound 2, perviridisin B], in series [1], the CC50 was > 50 µM. In addition, the “NF-κB (p65) inhibitory activity (in words)” value in series [2] was “significant NF-κB (p65) inhibitory activity”. Also, the concentration for half-maximal inhibition (IC50) in series [2] (NF-κB (p65) ED50) is 2.4 µM.
Turning to `COc1ccc([C@@]23Oc4cc(OC)cc(OC)c4[C@]2(O)[C@H](O)C[C@H]3c2ccccc2)cc1` [Compound 9, rocaglaol], in series [6], the “effect on LNCaP cells (cell cycle, apoptosis)” value is “cause G2/M-phase cell cycle arrest and to induce apoptosis”. For the same molecule, in series [1], the CC50 was > 50 µM. In series [2], inhibition was half-maximal at 0.005 µM (IC50), the “NF-κB (p65) inhibitory activity (in words)” value is reported as “significant NF-κB (p65) inhibitory activity” and the “times more potent than the control compound rocaglamide in NF-κB (p65) assay” value is listed as “more than 10 times”.
On to `COc1ccc([C@@]23Oc4cc(OC)cc(OC)c4[C@]2(O)[C@H](O)[C@H](C(N)=O)[C@H]3c2ccccc2)cc1` [Compound 13, didesmethylrocaglamide], for which the CC50 in series [1] is > 50 µM. Besides, in series [2] (setting [7]), the IC50 is > 20 µM.
Take `CC1=CC(O)N(CCCCNC(=O)/C=C/c2ccccc2)C1=O` (stereo not shown) [gigantamide A]: the IC50 in series [2] was > 20 µM.
Same read-out and setting: with `COc1ccc(-c2oc3cc(OC)cc(OC)c3c(=O)c2O)cc1` [5,7,4′-tri-O-methylkaempferol] the figure was > 20 µM.
`COC(=O)[C@H]1[C@@H](OC=O)[C@@]2(O)c3c(OC)cc(OC)cc3O[C@@]2(c2ccc3c(c2)OCO3)[C@@H]1c1ccccc1` [Compound 14, methyl 1-formyloxy-4′-demethoxy-3′,4′-methylenedioxyrocaglate]: in series [1], the CC50 was > 50 µM.
In the case of `COc1cc2ccc(=O)oc2cc1O` [scopoletin], in series [2] (setting [7]), the IC50 was > 20 µM.

For orientation: IC50 means the midpoint of a concentration-inhibition curve. High values mean weaker potency, low ones greater potency.
